Source: patent US8536202B2, “Triazole-substituted anthranilamides as pesticides” (Bayer Cropscience AG, priority 2010, dated 2013)
Read-outs that look alike come from different tables or passages of the source.

Experiments:
[1] = system: green peach aphid (Myzus persicae); experiment: Myzus test (MYZUPE spray treatment), Use Example 4; assay type: in vivo; details: 144 h; for pest or weed control at 100 g/ha: read-out: activity in %
Protocol: Solvents: 78 parts by weight of acetone • • 1.5 parts by weight of dimethylformamide
Emulsifier: 0.5 part by weight of alkylaryl polyglycol ether
An appropriate preparation of active compound is prepared by mixing 1 part by weight of active compound with the stated amounts of solvents and emulsifier and diluting the concentrate with emulsifier-containing water to the desired concentration.
Leaf discs of Chinese cabbage (Brassica pekinensis) infested by all stages of the green peach aphid (Myzus persicae) are sprayed with a preparation of active compound at the desired concentration.
After 6 days, the activity in % is ascertained. Here, 100% means that all of the aphids have been killed; 0% means that no aphids have been killed.

[2] = system: caterpillars of the armyworm (Spodoptera frugiperda); experiment: Spodoptera frugiperda test (SPODFR spray treatment); assay type: in vivo; details: 168 h; for pest or weed control at 100 g/ha: read-out: activity in %
Summary of the method: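 Percent caterpillar mortality read 7 days after infestation (0% none killed, 100% all killed). Treatment was a spray of the acetone/DMF/emulsifier formulation, water-diluted to test concentration, onto Zea mays leaf discs, allowed to dry before larvae were added.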

[3] = system: larvae of the mustard beetle (Phaedon cochleariae); experiment: Phaedon test (PHAECO spray treatment); assay type: in vivo; details: 168 h; for pest or weed control at 100 g/ha: read-out: activity in %
Summary of the method: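 Mortality of mustard beetle larvae, expressed as percent killed (100% all, 0% none), assessed 7 days after spraying. Spray liquor made from compound in acetone plus dimethylformamide with alkylaryl polyglycol ether, diluted in emulsifier-containing water to the desired concentration.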

[4] = log P determination by HPLC on reversed-phase columns (EEC Directive 79/831 Annex V.A8); assay type: physicochemical; details: pH 2.7
Summary of the method: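 Calibration used unbranched alkan-2-ones of 3 to 16 carbons with known log P, values interpolated linearly from retention times between neighbouring standards. Acidic-range LC-MS run at pH 2.7, eluents aqueous and acetonitrile formic acid 0.1%, linear gradient 10% to 95% acetonitrile.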

[5] = reversed-phase C18 HPLC column, HPLC on reversed-phase columns (C 18), EEC Directive 79/831 Annex V.A8, read-out: logP
[6] = HPLC on reversed-phase columns (C 18), EEC Directive 79/831 Annex V.A8, read-out: logP

| Compound | pest or weed control at 100 g/ha ([1]; 100 g/ha, after 6 days) [%] | pest or weed control at 100 g/ha ([2]; 100 g/ha, after 7 days) [%] | pest or weed control at 100 g/ha ([3]; 100 g/ha, after 7 days) [%] | chromatographic logP [4] | other results |
| --- | --- | --- | --- | --- | --- |
| Cc1cc(I)cc(C(N)=O)c1NC(=O)c1cc(Cn2ncc(C(F)(F)F)n2)nn1-c1ncccc1Cl [Example 156] | 100 | 100 | 100 | 2.89 | – |
| CSC[C@H](C)NC(=O)c1cc(C#N)cc(C)c1NC(=O)c1cc(Cn2ncc(C(F)(C(F)(F)F)C(F)(F)F)n2)nn1-c1ncccc1Cl [Example 254] | 80 | 100 | 100 | – | chromatographic logP [4, 5]: 4.06 |
| Cc1cc(C#N)cc(C(=O)NC2CC2)c1NC(=O)c1cc(Cn2cc(C(F)(F)C(F)(F)C(F)(F)F)nn2)nn1-c1ncccc1Cl [Example 342] | – | – | – | – | pest or weed control at 100 g/ha [1]: 100%; pest or weed control at 100 g/ha [2]: 100%; pest or weed control at 100 g/ha [3]: 100%; chromatographic logP [4, 6]: 3.22 |
| Cc1cc(C#N)cc(C(=O)NC(C)(C)C)c1NC(=O)c1cc(Cn2nc(C(F)(F)F)c(C(F)(F)F)n2)nn1-c1ncccc1Cl [Example 412] | 80 | 100 | 100 | 4.16 | – |
| CSC[C@H](C)NC(=O)c1cc(Cl)cc(C)c1NC(=O)c1cc(Cn2cc(C(F)(F)C(F)(F)F)nn2)nn1-c1ncccc1Cl [Example 307] | 100 | 100 | 100 | 3.66 | – |
| CNC(=O)c1cc(C#N)cc(C)c1NC(=O)c1cc(Cn2ncc(C(F)(C(F)(F)F)C(F)(F)F)n2)nn1-c1ncccc1Cl [Example 249] | 80 | 100 | 100 | 3.39 | – |
| Cc1cc(C#N)cc(C(=O)NC(C)(C)C)c1NC(=O)c1cc(Cn2cc(-c3ccc(Cl)cc3)nn2)nn1-c1ncccc1Cl [Example 54] | 80 | 100 | 100 | 3.54 | – |
| CNC(=O)c1cc(Cl)cc(Cl)c1NC(=O)c1cc(Cn2ncc(C(F)(F)F)n2)nn1-c1ncccc1Cl [Example 146] | 100 | 100 | 100 | 2.98 | – |
| CNC(=O)c1cc(C#N)cc(C)c1NC(=O)c1cc(Cn2cc(C(F)(C(F)(F)F)C(F)(F)F)nn2)nn1-c1ncccc1Cl [Example 217] | 100 | 100 | 100 | 3.03 | – |
| Cc1cc(C#N)cc(C(N)=O)c1NC(=O)c1cc(Cn2ncc(C(F)(F)F)n2)nn1-c1ncccc1Cl [Example 123] | – | 100 | 100 | 2.41 | pest or weed control at 20 g/ha ([1]; after 6 days): 100% |
| CNC(=O)c1cc(Cl)cc(C)c1NC(=O)c1cc(Cn2cc(C(F)(C(F)(F)F)C(F)(F)F)nn2)nn1-c1ncccc1Cl [Example 225] | 100 | – | 100 | 3.36 | pest or weed control at 20 g/ha ([2]; after 7 days): 100% |
| Cc1cc(C#N)cc(C(=O)NC(C)C2CC2)c1NC(=O)c1cc(Cn2ncc(C(F)(F)F)n2)nn1-c1ncccc1Cl (stereo not shown) [Example 125] | 100 | 100 | 100 | 3.39 | – |
| CSC[C@H](C)NC(=O)c1cc(I)cc(C)c1NC(=O)c1cc(Cn2cc(C(F)(C(F)(F)F)C(F)(F)F)nn2)nn1-c1ncccc1Cl [Example 238] | 100 | 100 | 100 | – | chromatographic logP [4, 5]: 4.26 |
| Cc1cc(I)cc(C(=O)NC(C)(C)C)c1NC(=O)c1cc(Cn2cc(C(F)(F)C(F)(F)F)nn2)nn1-c1ncccc1Cl [Example 313] | 100 | 100 | 100 | 4.09 | – |
| CCNC(=O)c1cc(C#N)cc(C)c1NC(=O)c1cc(Cn2cc(C(F)(F)F)nn2)nn1-c1ncccc1Cl [Example 180] | – | 100 | – | 2.49 | pest or weed control at 20 g/ha ([1]; after 6 days): 100%; pest or weed control at 500 g/ha ([3]; 500 g/ha, after 7 days): 100% |
| Cc1cc(C#N)cc(C(=O)NC(C)(C)C)c1NC(=O)c1cc(Cn2cc(C(F)(C(F)(F)F)C(F)(F)F)nn2)nn1-c1ncccc1Cl [Example 220] | 100 | – | 100 | – | pest or weed control at 20 g/ha ([2]; after 7 days): 100%; chromatographic logP [4, 5]: 3.75 |

| Compound | pest or weed control at 100 g/ha ([1]; 100 g/ha, after 6 days) [%] | pest or weed control at 100 g/ha ([2]; 100 g/ha, after 7 days) [%] | pest or weed control at 100 g/ha ([3]; 100 g/ha, after 7 days) [%] | chromatographic logP [4] | other results |
| --- | --- | --- | --- | --- | --- |
| Cc1cc(C#N)cc(C(=O)NC(C)C)c1NC(=O)c1cc(Cn2ncc(C(F)(F)F)n2)nn1-c1ccccc1Cl [Example 286] | 80 | 100 | 100 | – | chromatographic logP [4, 5]: 3.59 |
| Cc1cc(Cl)cc(C(=O)NC(C)(C)C)c1NC(=O)c1cc(Cn2cc(C(F)(F)C(F)(F)C(F)(F)F)nn2)nn1-c1ncccc1Cl [Example 339] | – | – | – | – | pest or weed control at 100 g/ha [1]: 90%; pest or weed control at 100 g/ha [2]: 100%; pest or weed control at 100 g/ha [3]: 100%; chromatographic logP [4, 6]: 4.21 |
| Cc1cc(I)cc(C(=O)NCC#N)c1NC(=O)c1cc(Cn2ncc(C(F)(F)F)n2)nn1-c1ncccc1Cl [Example 165] | 100 | 100 | 100 | 3.11 | – |
| Cc1cc(C#N)cc(C(=O)NC2CC2)c1NC(=O)c1cc(Cn2cc(C(F)(C(F)(F)F)C(F)(F)F)nn2)nn1-c1ncccc1Cl [Example 224] | 80 | 100 | 100 | – | chromatographic logP [4, 5]: 3.24 |
| Cc1cc(Cl)cc(C(N)=O)c1NC(=O)c1cc(Cn2ncc(C(F)(F)C(F)(F)C(F)(F)F)n2)nn1-c1ncccc1Cl [Example 384] | – | – | – | – | pest or weed control at 100 g/ha [1]: 100%; pest or weed control at 100 g/ha [2]: 100%; pest or weed control at 100 g/ha [3]: 100%; chromatographic logP [4, 6]: 3.5 |
| CNC(=O)c1cc(C#N)cc(C)c1NC(=O)c1cc(Cn2ncc(C(F)(F)F)n2)nn1-c1ncccc1Br [Example 9] | 100 | 100 | 100 | – | chromatographic logP [4, 5]: 2.33 |
| CNC(=O)c1cc(C#N)cc(C)c1NC(=O)c1cc(Cn2nnc3cc(C(F)(F)F)ccc32)nn1-c1ncccc1Cl [Example 101] | 100 | 100 | 100 | 2.76 | – |
| CSC[C@H](C)NC(=O)c1cc(C#N)cc(C)c1NC(=O)c1cc(Cn2ncc(C(F)(F)F)n2)nn1-c1ncccc1Cl [Example 133] | 90 | 100 | 100 | 3.33 | – |
| CCNC(=O)c1cc(C#N)cc(C)c1NC(=O)c1cc(Cn2ncc(C(F)(F)F)n2)nn1-c1ncccc1Br [Example 12] | 100 | 100 | 100 | – | chromatographic logP [4, 5]: 2.53 |
| CNC(=O)c1cc(I)cc(C)c1NC(=O)c1cc(Cn2ncc(C(F)(F)F)n2)nn1-c1ncccc1Cl [Example 157] | 100 | 100 | 100 | 3.26 | – |
| Cc1cc(I)cc(C(N)=O)c1NC(=O)c1cc(Cn2ncc(C(F)(C(F)(F)F)C(F)(F)F)n2)nn1-c1ncccc1Cl [Example 271] | 80 | – | 100 | 3.7 | pest or weed control at 20 g/ha ([2]; after 7 days): 100% |
| CCNC(=O)c1cc(C#N)cc(C)c1NC(=O)c1cc(Cn2ncc(C(F)(F)C(F)(F)C(F)(F)F)n2)nn1-c1ncccc1Cl [Example 372] | – | – | – | – | pest or weed control at 100 g/ha [1]: 100%; pest or weed control at 100 g/ha [2]: 100%; pest or weed control at 100 g/ha [3]: 100%; chromatographic logP [4, 6]: 3.65 |
| CNC(=O)c1cc(Cl)cc(C)c1NC(=O)c1cc(Cn2ncc(C(F)(F)C(F)(F)C(F)(F)F)n2)nn1-c1ncccc1Cl [Example 368] | – | – | – | – | pest or weed control at 100 g/ha [1]: 100%; pest or weed control at 100 g/ha [2]: 100%; pest or weed control at 100 g/ha [3]: 100%; chromatographic logP [4, 6]: 3.76 |
| CNC(=O)c1cc(C#N)cc(C)c1NC(=O)c1cc(Cn2nc(C(F)(F)F)c(C(F)(F)F)n2)nn1-c1ncccc1Cl [Example 414] | 100 | 100 | 100 | 3.43 | – |
| Cc1cc(I)cc(C(=O)NCC2CC2)c1NC(=O)c1cc(Cn2cc(C(F)(F)C(F)(F)F)nn2)nn1-c1ncccc1Cl [Example 314] | 80 | 100 | 100 | 3.8 | – |
